≈ marks a conversion by molar mass, not a printed value. Where “and” joins values, the source holds several entries; their conditions need not be identical. Identical values can stand only once. Like-named read-outs stand apart in the source and are kept apart here.
Tests used:
[1] = system: BL21(DE3) E. coli transformed with pUCP18 vector expressing untagged AAC(3)-XIa; type: cell-based
Description: (§1) Ten milliliters of LB containing […] ampicillin were inoculated from glycerol stocks of transformed BL21(DE3) E. coli containing genes expressing the proteins of interest in pUCP18 vectors. These cultures were incubated at 37 °C with 200 rpm agitation for 16 h. Turbidity was measured through OD600 with a NanoDrop OneC Spectrometer (Thermo Scientific). From the initial cultures, secondary 10 mL cultures were prepared with OD600 values of 0.1. These cultures were grown until OD600 values of 0.4–0.6 were reached and diluted to bring all cultures to the same OD600. Cultures were induced with 1 mM Isopropyl β-D-1-thiogalactopyranoside and incubated for 4 h. Two microliters of culture was added to 198 μL of LB with an appropriate aminoglycoside titration concentration. Each titration point was repeated n = 4 times. The formulated 96-well culture plate (Sarstedt) had OD600 measured on a 20-min interval over 17 h using a BioTek Cytation 5 Cell Imaging Multimode Reader, incubating at 37 °C with 282 cpm orbital agitation. Experiments were repeated with fresh cultures on separate days to ensure consistent trends. Data was analyzed in Microsoft Excel and GraphPad5. The remainder of the culture immediately had its RNA isolated for qPCR experiments.

[2] = system: BL21(DE3) E. coli transformed with pUCP18 vector expressing untagged AAC(3)-IIIa; type: cell-based; settings: E. coli expressing AAC(3)-IIIa; 12 μg mL^−1 antibiotic; 17 h
Description: as §1

[3] = system: BL21(DE3) E. coli transformed with pUCP18 vector expressing untagged AAC(3)-Ia; type: cell-based; settings: E. coli expressing AAC(3)-Ia; 12 μg mL^−1 antibiotic; 17 h
Description: as §1

[4] = system: empty pUCP18 vector transformed E. coli; assay: Antibiotic susceptibility testing, endpoint MIC assay; type: cell-based; settings: Escherichia coli; empty pUCP18 vector control E. coli; after 20 h of growth; read-out: Endpoint minimum inhibitory concentration (MIC)
Description: (§2) Ten milliliters of cultures of LB containing […] ampicillin were inoculated from glycerol stocks of transformed BL21(DE3) E. coli containing genes expressing the proteins of interest in pUCP18 vectors. Experiments were performed using 6xHis-tagged fusion-proteins, as well as untagged wild-type proteins. These cultures were incubated at 37 °C with 200 rpm agitation for 16 h. Turbidity was measured through OD600 with a NanoDrop OneC Spectrometer (Thermo Scientific). From the initial cultures, secondary 10 mL cultures were prepared with OD600 values of 0.1. These cultures were grown until OD600 values of 0.4–0.6 were reached and diluted to bring all cultures to the same OD600. Cultures were induced with 1 mM Isopropyl β-D-1-thiogalactopyranoside and incubated for 4 h. Cultures were diluted to 1 × 10^6 cells mL^−1. Two microliters of culture was added to 198 μL of LB with an appropriate aminoglycoside titration concentration. The formulated 96-well culture plate (Sarstedt) was incubated at 37 °C with 120 rpm orbital agitation. The remainder of the bacterial culture was immediately lysed and processed for Western blotting. OD600 was measured after 20 h using the Molecular Devices Spectra MAX 190 plate reader.

[5] = system: BL21(DE3) E. coli transformed with pUCP18 vector expressing AAC(3)-IIIa; assay: as above; type: cell-based; settings: Escherichia coli, 20 h, read-out: Endpoint minimum inhibitory concentration (MIC)
Description: as §2

[6] = system: BL21(DE3) E. coli transformed with pUCP18 vector expressing AAC(3)-XIa; assay: as above; type: cell-based; settings: Escherichia coli, 20 h, read-out: Endpoint minimum inhibitory concentration (MIC)
Description: as §2

[7] = system: BL21(DE3) E. coli transformed with pUCP18 vector expressing AAC(3)-Ia; assay: as above; type: cell-based; settings: Escherichia coli, 20 h, read-out: Endpoint minimum inhibitory concentration (MIC)
Description: as §2

AAC(3)-Ia = AAC(3)-Ia (Acinetobacter baumannii, UniProt D7R512); assay: Isothermal titration calorimetry; type: binding
Description: To accurately measure protein ligand interactions, the concentration of our proteins of interest was measured spectrophotometrically using the NanoDrop OneC Spectrometer (Thermo Scientific). ITC experiments were performed on a MicroCal iTC 200 (General Electric) at 25 °C with stirring at 750 rpm. Unique buffer solutions were used for each enzyme. AAC(3)-Ia was prepared in 50 mM HEPES, pH 7, and 150 mM NaCl. AAC(3)-IIIa was prepared in 120 mM Tris, pH 7.5, and 150 mM NaCl. AAC(3)-XIa was prepared in 20 mM Tris, pH 7.5, and 150 mM NaCl. The cell contained 550 μM AAC(3)-Ia, 350 μM AAC(3)-IIIa, or 450 μM AAC(3)-XIa. All experiments also contained 5000 μM of coenzyme A trilithium salt in the cell. […] In all ITC experiments, aminoglycosides were prepared in the same buffering solution as the target protein. The ligands were injected 29 times ([…] per injection) with a 180 s interval between injections. Results were analyzed using ORIGIN software version 7E (MicroCal) using the molecular weight of a single protomer of each protein and fitted with a two-set of sites binding model (Supplementary Fig. 5). Data analysis was performed in Microsoft Excel and GraphPad5 software. One-way ANOVA and Tukey’s multiple comparison tests were used to determine the statistical significance of binding affinities.

[8] = AAC(3)-Ia, first set of sites, 25 °C, with coenzyme A, n = 3
[9] = AAC(3)-Ia, second set of sites, 25 °C, with coenzyme A, n = 3

For `CN[C@@H]1[C@@H](O)[C@@H](O[C@@H]2[C@@H](O)[C@H](O[C@H]3OC(CN)=CC[C@H]3N)[C@@H](N)C[C@H]2N)OC[C@]1(C)O` [Sisomicin, sisomicin], the OD600 growth curve ([1]; 3 ug/mL Sisomicin, time point 12:39:10) was 0.741 and 0.631 and 0.615 and 0.786, the OD600 growth curve ([1]; 3 ug/mL Sisomicin, time point 12:59:10) was 0.747 and 0.634 and 0.621 and 0.795 and the OD600 growth curve ([1]; 3 ug/mL Sisomicin, time point 13:19:10) was 0.745 and 0.632 and 0.619 and 0.794. The OD600 growth curve ([1]; 3 ug/mL Sisomicin, time point 13:39:10) was 0.742 and 0.632 and 0.619 and 0.79, the OD600 growth curve ([1]; 3 ug/mL Sisomicin, time point 13:59:10) was 0.738 and 0.632 and 0.618 and 0.787 and the OD600 growth curve ([1]; 3 ug/mL Sisomicin, time point 14:19:10) was 0.744 and 0.634 and 0.623 and 0.797. The OD600 growth curve ([1]; 3 ug/mL Sisomicin, time point 14:39:10) was 0.747 and 0.635 and 0.625 and 0.799, the OD600 growth curve ([1]; 3 ug/mL Sisomicin, time point 14:59:10) was 0.745 and 0.635 and 0.627 and 0.795 and the OD600 growth curve ([1]; 6 ug/mL Sisomicin, time point 12:39:10) was 0.62 and 0.602 and 0.749 and 0.849. The OD600 growth curve ([1]; 6 ug/mL Sisomicin, time point 12:59:10) was 0.627 and 0.606 and 0.748 and 0.838, the OD600 growth curve ([1]; 6 ug/mL Sisomicin, time point 13:19:10) was 0.634 and 0.612 and 0.751 and 0.829 and the OD600 growth curve ([1]; 6 ug/mL Sisomicin, time point 13:39:10) was 0.639 and 0.613 and 0.744 and 0.819. For the same molecule, the OD600 growth curve ([1]; 6 ug/mL Sisomicin, time point 13:59:10) was 0.641 and 0.612 and 0.741 and 0.805, the OD600 growth curve ([1]; 6 ug/mL Sisomicin, time point 14:19:10) was 0.645 and 0.615 and 0.738 and 0.792 and the OD600 growth curve ([1]; 6 ug/mL Sisomicin, time point 14:39:10) was 0.654 and 0.626 and 0.749 and 0.784. The OD600 growth curve ([1]; 6 ug/mL Sisomicin, time point 14:59:10) was 0.663 and 0.629 and 0.759 and 0.771, the OD600 growth curve ([1]; 6 ug/mL Sisomicin, time point 15:19:10) was 0.67 and 0.64 and 0.762 and the OD600 growth curve ([1]; 12 ug/mL Sisomicin, time point 12:39:10) was 0.093 and 0.101 and 0.109 and 0.105. For the same molecule, the OD600 growth curve ([1]; 12 ug/mL Sisomicin, time point 12:59:10) was 0.093 and 0.101 and 0.109 and 0.105, the OD600 growth curve ([1]; 12 ug/mL Sisomicin, time point 13:19:10) was 0.093 and 0.101 and 0.108 and 0.104 and the OD600 growth curve ([1]; 12 ug/mL Sisomicin, time point 13:39:10) was 0.093 and 0.101 and 0.108 and 0.104. For the same molecule, the OD600 growth curve ([1]; 12 ug/mL Sisomicin, time point 13:59:10) was 0.093 and 0.1 and 0.108 and 0.104, the OD600 growth curve ([1]; 12 ug/mL Sisomicin, time point 14:19:10) was 0.093 and 0.1 and 0.108 and 0.103 and the OD600 growth curve ([1]; 12 ug/mL Sisomicin, time point 14:39:10) was 0.093 and 0.1 and 0.108 and 0.103. For the same molecule, the OD600 growth curve ([1]; 12 ug/mL Sisomicin, time point 14:59:10) was 0.093 and 0.1 and 0.107 and 0.103, the OD600 growth curve ([1]; 12 ug/mL Sisomicin, time point 15:19:10) was 0.093 and the “Growth (OD600 growth curve)” value ([1]; E. coli expressing AAC(3)-XIa, 12 μg mL^−1 antibiotic, 17 h) was “none of the strains of transformed E. coli were able to grow at all”. For the same molecule, the “Growth (OD600 growth curve)” value [2] was “none of the strains of transformed E. coli were able to grow at all”, the “Growth (OD600 growth curve)” value [3] was “none of the strains of transformed E. coli were able to grow at all” and the MIC [4] was 6 µg/mL (≈ 13.4 µM). The MIC [5] was 12 µg/mL (≈ 26.8 µM), the MIC [6] was 12 µg/mL (≈ 26.8 µM) and the MIC [7] was 6 µg/mL (≈ 13.4 µM). The TΔS (AAC(3)-Ia; [8]) was 3.3 ± 0.427 kcal/mol, the ΔG (AAC(3)-Ia; [8]) was -6.25 ± 0.596 kcal/mol and the ΔH (AAC(3)-Ia; [8]) was -2.95 ± 0.416 kcal/mol. For the same molecule, the “N (sites)” value (AAC(3)-Ia; AAC(3)-Ia, first set of sites, two-set of sites model, 25 °C, with coenzyme A, n = 3) was 0.50 ± 0.06 sites, the “N2 (sites)” value (AAC(3)-Ia; [9]) was 0.54 ± 0.01 sites and the “TΔS 2” value (AAC(3)-Ia; [9]) was 3.45 ± 0.795 kcal/mol. The “ΔG 2” value (AAC(3)-Ia; [9]) was -5.66 ± 1.1 kcal/mol, the “ΔH 2” value (AAC(3)-Ia; [9]) was -2.21 ± 0.763 kcal/mol and the Kd (AAC(3)-Ia; Kd2, AAC(3)-Ia, second set of sites, 25 °C, with coenzyme A, n = 3) was 71.8 ± 7.5 µM. The Kd (AAC(3)-Ia; Kd, AAC(3)-Ia, first set of sites, two-set of sites model, 25 °C, with coenzyme A, n = 3) was 26 ± 0.6 µM and the Kd (AAC(3)-Ia; Kd, AAC(3)-Ia, individual replicates, raw data behind Fig. 6) was 26.2 µM and 24.9 µM and 27 µM.

Source: PMC12378234, “Enzyme-mediated aminoglycoside resistance without target mimicry” (Communications Chemistry, 2025)
